Legend:
Assay type in all cases: physicochemical
[1] = Particle crystallinity and polymorphism analysis by X-ray powder diffraction; details: for FWHMav: broadening of diffraction maxima positioned at 11.3° and 18.4°
Method: Crystallinity and polymorphism of the sample was studied by X-ray powder diffraction (Diffractometer D500, Siemens GmbH, Karlsruhe, Germany). A copper target X-ray (wavelength 0.1541 nm) tube was operated with the power of 40 kV×40 mA. For x-ray powder diffraction analysis, 10 mg of the sample was mounted to a specific cylindrical single crystal mini sample stage, which has a diameter of 10 mm and height of approximately 1 mm. […] The patterns obtained were identical. There were not significant differences in peak positions and additional peaks were not observed. […] The relative degree crystallinity of the powder was also determined based on the x-ray powder diffraction patterns. It is noticed that the powder was well crystallised. The maximum intensities were sharp and well above background intensities. The estimation was based on the broadening of the diffraction maxima (FWHM-values) positioned at 11.3° and 18.4°. It is seen that the relative degree of crystallinity of the powder is 21% higher than that of the reference powder.

[2] = Particle size analysis by electrical low pressure impactor (ELPI), measured gravimetrically; details: mass size distribution, dilution ratio 1:10
Method: Referring now to FIG. 1b, the particle size distribution was measured by an electrical low pressure impactor (12) (ELPI) connected to a vacuum (13). The particles exiting the tubular tube were passed into a diluter (10), with a dilution ratio of 1:10, before entering the ELPI. Exhaust gas exit (11) was arranged in the diluter. To minimize temperature gradient, and thus to reduce the moisture condensation, the diluter, the line to the diluter and the gas line into the diluter were layered with heating elements, which were kept at a temperature higher than that of the solution dew point. […] It is shown that a narrow size distribution within the range of aerodynamic particle size of interest, i.e. at around 1-5 μm, was obtained.

[3] = Particle shape and surface structure by FE-SEM; details: 2 kV
From the text: Referring now to FIG. 1c, individual particles were collected on the surface of a holey carbon film TEM grid (14) connected to a vacuum (15) after particle collection. The morphology of the particles were then imaged using a field emission low voltage scanning electron microscope (FE-SEM) operated at 2 kV acceleration voltage. FIGS. 4a to 4d are scanning electron microscope images of the powder (magnification ×20000 in FIGS. 4b, 4c, 4d and ×23000 in FIG. 4a).

Row | Structure (SMILES) | FWHMav [1] | aerodynamic particle size distribution [2] | polymorphism ([1]; diffraction pattern compared to reference beclomethasone dipropionate powder) | particle diameter [3] | particle shape and surface structure [3]
1 | CCC(=O)OCC(=O)[C@@]1(OC(=O)CC)[C@@H](C)C[C@H]2[C@@H]3CCC4=CC(=O)C=C[C@]4(C)[C@@]3(Cl)[C@@H](O)C[C@@]21C [Reference powder, beclomethasone dipropionate, reference compound] | 0.33 ° |  |  |  | 
2 | CCC(=O)OCC(=O)[C@@]1(OC(=O)CC)[C@@H](C)C[C@H]2[C@@H]3CCC4=CC(=O)C=C[C@]4(C)[C@@]3(Cl)[C@@H](O)C[C@@]21C [Obtained beclomethasone dipropionate powder] | 0.26 ° | 1-5 μm | polymorphic crystal form class I | 2-3 μm | spherical with rough surfaces
